Results published in patent US10822325B2, “Human GLUT5 specific inhibitors and methods of treatment” (UNM RAINFOREST INNOVATIONS, priority 2015, dated 2020).
“Also recorded” adds a separate entry of the source.

How the values were obtained:
[1] = target: T1, GlcPSe,F348H (Staphylococcus epidermidis, UniProt A0A0H2VG78, F348H); experiment: Glucose uptake by GlcPSe,F348H mutant in right-side-out vesicles of JM1100 E. coli cells; type: biochemical, bacterial; conditions: for effect on GlcPSe,F348H glucose transport: 2 mM compound, RSO vesicles
T1 construct: made in house; host or cells: Escherichia coli JM1100 (pBAD); right-side-out membrane vesicles
Method: (§1) Glucose transport assay for GlcPSe, wild-type and F348H mutant, was performed as described previouslyl^16. GlcPSe was cloned into the pBAD vector (Invitrogen) with C-terminal 6×His tag. F348H mutation was done with the site-directed mutagenesis method^37. GlcPSe proteins were expressed in the glucose transporter deficient Escherichia coli strain JM1100. Cells were grown at 37° C., in Luria Broth medium, with 100 μg/mL ampicillin. Protein expression was induced with 0.3 mM L-arabinose at O.D.600 nm 0.6. After 3 hours, cells were harvested by centrifugation at 2,500 g for 5 min. The right-side-out (RSO) membrane vesicles of JM1100 E. coli cells were prepared as described previouslyl^16,39,40. Transport assay was initiated by the addition of ^14C-radiolabeled glucose (Moravek Biochemicals) to 50 μL RSO vesicles in 100 mM KPi buffer pH 7.5, at O.D.600 nm of 2.0. After one minute, the transport was stopped and the radioactivity was measured as described below. When inhibitors were used, they were incubated with RSO vesicles 1 minute before transport initiation.
As MSNBA seemed to be specific for GLUT5, we focused on the residues in the MSNBA predicted binding site that were different from GLUT5 compared to GLUT1-4 and GlcPSe. Among these, H387 of GLUT5 potentially interacts with the […] group of MSNBA (FIG. 4b and FIG. 6), but is a Phe in GLUT1-4 as well as GlcPSe (FIG. 4c). To test if this residue is important for MSNBA inhibition, we constructed and expressed three mutant proteins: GlcPSe,F348H, GLUT1F379H, and GLUT5H387F. As with the wild-type proteins, GLUT1F379H and GLUT5H387F were recombinantly produced in insect cells, purified and reconstituted in proteoliposomes. Their transport activity was assayed by the entrance counter-flow method in proteolipsomes. Glucose transport of GlcPSe,F348H was determined in JM1100 E. coli cells in right-side-out (RSO) vesicles.

[2] = target: T2, GlcPSe (Staphylococcus epidermidis, UniProt A0A0H2VG78); experiment: Glucose uptake by GlcPSe in right-side-out vesicles of JM1100 E. coli cells; type: biochemical; conditions: 2 mM compound, RSO vesicles, 30 μM C14-glucose, one minute
T2 construct: made in house; host or cells: Escherichia coli JM1100 (pBAD); right-side-out membrane vesicles
T2 sequence (A0A0H2VG78 1-446): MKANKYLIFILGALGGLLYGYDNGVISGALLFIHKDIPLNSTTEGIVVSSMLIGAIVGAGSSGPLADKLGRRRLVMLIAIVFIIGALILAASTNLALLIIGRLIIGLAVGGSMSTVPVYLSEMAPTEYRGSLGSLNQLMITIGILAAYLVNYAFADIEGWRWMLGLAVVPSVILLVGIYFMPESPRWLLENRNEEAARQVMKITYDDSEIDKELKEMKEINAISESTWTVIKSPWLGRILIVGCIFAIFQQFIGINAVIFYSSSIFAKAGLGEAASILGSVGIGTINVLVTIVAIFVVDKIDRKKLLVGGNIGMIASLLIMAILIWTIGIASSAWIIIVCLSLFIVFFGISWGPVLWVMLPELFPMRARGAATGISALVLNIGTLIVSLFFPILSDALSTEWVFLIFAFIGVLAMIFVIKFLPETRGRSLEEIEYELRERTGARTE
Method: as §1
Given the partial conservation of the MSNBA binding site in other GLUTs and GlcPSe, we checked whether MSNBA inhibits GLUT1-4 or GlcPSe. Glucose transport of GLUT1, GLUT2, GLUT3 and GLUT4 and fructose transport of GLUT2 were assayed by the entrance counter-flow method in proteoliposomes constructed with the respective recombinant human GLUT produced in insect cells. Glucose transport of GlcPSe was measured in right-side-out (RSO) vesicles of JM1100 E. coli cells (that lack endogenous glucose transport) expressing GlcPSe.

T1 sequence (A0A0H2VG78 whole entry F348H): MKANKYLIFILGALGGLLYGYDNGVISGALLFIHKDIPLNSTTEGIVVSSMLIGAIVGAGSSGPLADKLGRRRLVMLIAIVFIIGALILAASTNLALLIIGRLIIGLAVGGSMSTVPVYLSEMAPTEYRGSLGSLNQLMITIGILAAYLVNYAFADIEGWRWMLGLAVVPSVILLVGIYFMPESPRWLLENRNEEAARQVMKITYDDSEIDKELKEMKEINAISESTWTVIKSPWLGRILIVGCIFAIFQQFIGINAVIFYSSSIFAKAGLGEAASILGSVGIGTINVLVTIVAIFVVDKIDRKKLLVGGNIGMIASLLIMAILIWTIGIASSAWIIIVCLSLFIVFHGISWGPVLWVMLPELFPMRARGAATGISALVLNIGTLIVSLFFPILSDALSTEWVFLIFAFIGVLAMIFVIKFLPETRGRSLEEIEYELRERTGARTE

| Structure (SMILES) | effect on GlcPSe,F348H glucose transport [1] | effect on GlcPSe glucose transport [2] | inhibition at 2000 µM ([1]; read-out: inhibition of GlcPSe,F348H transport activity) [%] |
| --- | --- | --- | --- |
| C=C1[C@@H](C)[C@H]2[C@H](Cc3ccccc3)NC(=O)[C@]23OC(=O)/C=C/[C@H](O)CCC[C@@H](C)C/C=C/[C@H]3[C@@H]1O [cytochalasin B, reference compound] | decreased cytochalasin B inhibition | inhibited |  |
| O=C(CCc1ccc(O)cc1)c1c(O)cc(O)cc1O [phloretin, reference compound] | still inhibited | inhibited |  |
| CS(=O)(=O)c1ccc(Nc2ccc3c(c2)OCO3)c([N+](=O)[O-])c1 [MSNBA, N-[4-(methylsulfonyl)-2-nitrophenyl]-1,3-benzodioxol-5-amine] |  | did not affect; also recorded: did not influence | 75 |
